From US20260049077A1, “Neurotrophic Receptor Tyrosine Kinase (NTRK) Inhibitors and Methods Using Same” (Baylor College of Medicine, priority 2022, published 2026)
Values joined by “and” are separate entries in the source; they are usually repeats but may differ in a detail not shown here. Identical values can stand only once. “Also recorded” adds a separate entry of the source. Like-named read-outs stand apart in the source and are kept apart here.

Columns and labels:
NTRK1 = NTRK1 (Homo sapiens (Human), UniProt P04629); assay: NTRK1 inhibition (IC50); details: read-out: NTRK1 IC50
[1] = Plasma ALT and AST in mice after a high dose (50 mg/kg); format: in vivo, mouse
PKMYT1 = PKMYT1 (Homo sapiens (Human), UniProt Q99640); assay: Promega K192 cell-based NanoBRET kinase occupancy assay
Procedure: (§1) Similarly, the selectivity of CDD-3031 for NTRK kinases was evaluated in a kinase occupancy assay (Promega K192 cell-based NanoBRET assay) using 192 kinases (Table 4).

TEK = TEK (Homo sapiens (Human), UniProt Q02763); assay: as above
Procedure: as §1

JAK2 (V617F) = JAK2 (V617F) (Homo sapiens (Human), UniProt O60674, V617F); assay: as above
Procedure: as §1

STK11 = STK11 (Homo sapiens (Human), UniProt Q15831); assay: as above
Procedure: as §1

MKNK2 = MKNK2 (Homo sapiens (Human), UniProt Q9HBH9); assay: as above
Procedure: as §1

MAP3K19 = MAP3K19 (Homo sapiens (Human), UniProt Q56UN5); assay: as above
Procedure: as §1

CDKL1 = CDKL1 (Homo sapiens (Human), UniProt Q00532); assay: as above
Procedure: as §1

WEE1 = WEE1 (Homo sapiens (Human), UniProt P30291); assay: as above
Procedure: as §1

MUSK = MUSK (Homo sapiens (Human), UniProt O15146); assay: as above
Procedure: as §1

ULK2 = ULK2 (Homo sapiens (Human), UniProt Q8IYT8); assay: as above
Procedure: as §1

NTRK2 = NTRK2 (Homo sapiens (Human), UniProt Q16620); assay: as above
Procedure: as §1

SGK1 = SGK1 (Homo sapiens (Human), UniProt O00141); assay: as above
Procedure: as §1

TIE1 = TIE1 (Homo sapiens (Human), UniProt P35590); assay: as above
Procedure: as §1

[2] = Brain uptake in mice 24 hours post-administration; format: in vivo, mouse
NTRK3 = NTRK3 (Homo sapiens (Human), UniProt Q16288); assay: NTRK3 inhibition (IC50); details: read-out: NTRK3 IC50
[3] = Pharmacokinetics of CDD-3031 in mice, oral gavage; format: in vivo, mouse; details: oral gavage 50 mg/kg, n = 3, mean ± SD
Procedure: CDD-2330 was dissolved in 10% DMSO+0.5% methyl cellulose at 5 mg/mL. CDD-2330 was orally delivered at 50 mg/kg to mice (n=4). Blood samples were collected at 0, 0.25, 0.5, 1, 2, 4, 6, 8, and 24 h. Samples were analyzed by LC-MS, and the concentration of CDD-2330 was quantified with a standard curve (range: 0-10 μM). CDD-3031 was administered by oral gavage at a dose of 50 mg/kg. Blood samples were collected at […], 0.167, 0.25, 0.5, 1, 2, 4, 6, 8, and 24 h.

192 kinases = assay: Promega K192 cell-based NanoBRET kinase occupancy assay (panel); details: 1 μM
Procedure: as §1

[4] = Endometriosis mouse model, liver and kidney toxicity (organ weight, ALT, AST); format: in vivo; parameters: ALT (Mean ± SD) / AST (Mean ± SD): unit not given here
Procedure: In one aspect, the present disclosure provides exemplary data relating to the administration of NTRK2 inhibitors in a mouse model of endometriosis (FIG. 14). In certain embodiments, the recipient mouse is administered the NTRK2 inhibitor and/or controls on day 14 after intraperitoneal injection of endometrium of the donor mouse. In certain embodiments, the recipient mouse is sacrificed and quantitatively assessed on day 28.

[5] = Metabolic stability in mouse liver microsomes (MLM)
[6] = plasma, 24 h after 50 mg/kg CDD-3031 by oral gavage, individual mice
[7] = i.p. dose of 10 mg/kg/day for 14 days

Sequence of NTRK2 (Q16620 32-822): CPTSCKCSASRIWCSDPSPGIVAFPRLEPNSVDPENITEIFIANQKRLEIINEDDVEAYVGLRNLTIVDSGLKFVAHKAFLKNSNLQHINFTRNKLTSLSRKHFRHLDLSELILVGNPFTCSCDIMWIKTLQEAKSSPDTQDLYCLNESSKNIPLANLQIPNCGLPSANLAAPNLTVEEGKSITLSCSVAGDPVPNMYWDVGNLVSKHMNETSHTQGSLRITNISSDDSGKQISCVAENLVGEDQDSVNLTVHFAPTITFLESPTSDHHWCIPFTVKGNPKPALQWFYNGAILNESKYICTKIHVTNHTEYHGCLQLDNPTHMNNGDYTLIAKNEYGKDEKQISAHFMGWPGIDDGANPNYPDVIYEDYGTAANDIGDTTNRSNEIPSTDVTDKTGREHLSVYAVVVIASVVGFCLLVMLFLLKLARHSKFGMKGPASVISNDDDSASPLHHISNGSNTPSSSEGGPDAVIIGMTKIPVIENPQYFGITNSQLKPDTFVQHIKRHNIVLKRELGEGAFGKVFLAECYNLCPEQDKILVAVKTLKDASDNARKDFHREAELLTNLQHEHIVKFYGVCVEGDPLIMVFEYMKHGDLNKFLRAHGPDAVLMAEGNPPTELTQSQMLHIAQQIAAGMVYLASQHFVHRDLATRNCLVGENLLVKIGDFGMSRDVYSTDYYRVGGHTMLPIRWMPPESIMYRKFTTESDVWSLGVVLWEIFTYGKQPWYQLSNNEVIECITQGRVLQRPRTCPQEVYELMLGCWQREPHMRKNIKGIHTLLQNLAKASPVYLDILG
Sequence of CDKL1 (Q00532 whole entry): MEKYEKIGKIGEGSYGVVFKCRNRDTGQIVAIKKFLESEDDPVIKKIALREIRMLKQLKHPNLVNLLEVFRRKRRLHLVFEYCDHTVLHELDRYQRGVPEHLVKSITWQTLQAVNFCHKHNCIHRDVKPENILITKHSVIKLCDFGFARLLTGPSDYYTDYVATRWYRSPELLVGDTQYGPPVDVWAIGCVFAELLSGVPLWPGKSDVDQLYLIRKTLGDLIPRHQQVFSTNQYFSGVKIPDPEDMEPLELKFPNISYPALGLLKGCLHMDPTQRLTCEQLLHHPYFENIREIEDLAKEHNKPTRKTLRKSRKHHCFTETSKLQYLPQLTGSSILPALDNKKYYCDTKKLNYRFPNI
Sequence of SGK1 (O00141 whole entry): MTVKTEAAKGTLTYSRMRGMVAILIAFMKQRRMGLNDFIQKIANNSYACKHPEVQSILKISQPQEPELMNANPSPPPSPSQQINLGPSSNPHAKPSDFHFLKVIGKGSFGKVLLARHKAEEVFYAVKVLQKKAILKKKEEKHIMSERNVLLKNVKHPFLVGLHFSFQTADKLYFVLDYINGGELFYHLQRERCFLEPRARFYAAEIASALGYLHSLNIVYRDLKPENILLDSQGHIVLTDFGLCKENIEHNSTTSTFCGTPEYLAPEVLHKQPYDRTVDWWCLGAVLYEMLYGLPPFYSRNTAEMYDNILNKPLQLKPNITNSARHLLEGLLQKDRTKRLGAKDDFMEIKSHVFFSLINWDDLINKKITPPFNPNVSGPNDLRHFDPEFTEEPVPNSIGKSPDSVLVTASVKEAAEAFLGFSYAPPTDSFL
Sequence of PKMYT1 (Q99640 whole entry): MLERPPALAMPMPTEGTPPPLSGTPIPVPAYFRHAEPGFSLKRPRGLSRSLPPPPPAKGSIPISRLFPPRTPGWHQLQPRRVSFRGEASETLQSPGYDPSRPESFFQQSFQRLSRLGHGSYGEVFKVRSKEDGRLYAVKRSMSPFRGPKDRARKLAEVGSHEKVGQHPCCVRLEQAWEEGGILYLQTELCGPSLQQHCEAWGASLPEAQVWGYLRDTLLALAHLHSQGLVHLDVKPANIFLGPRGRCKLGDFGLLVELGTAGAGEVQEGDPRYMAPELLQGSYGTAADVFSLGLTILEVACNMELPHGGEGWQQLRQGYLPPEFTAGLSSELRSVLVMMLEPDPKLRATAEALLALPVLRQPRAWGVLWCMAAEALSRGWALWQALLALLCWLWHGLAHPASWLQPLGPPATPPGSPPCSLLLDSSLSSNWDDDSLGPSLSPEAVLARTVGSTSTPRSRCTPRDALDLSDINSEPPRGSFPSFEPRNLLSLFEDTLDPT
Sequence of JAK2 (V617F) (O60674 whole entry V617F): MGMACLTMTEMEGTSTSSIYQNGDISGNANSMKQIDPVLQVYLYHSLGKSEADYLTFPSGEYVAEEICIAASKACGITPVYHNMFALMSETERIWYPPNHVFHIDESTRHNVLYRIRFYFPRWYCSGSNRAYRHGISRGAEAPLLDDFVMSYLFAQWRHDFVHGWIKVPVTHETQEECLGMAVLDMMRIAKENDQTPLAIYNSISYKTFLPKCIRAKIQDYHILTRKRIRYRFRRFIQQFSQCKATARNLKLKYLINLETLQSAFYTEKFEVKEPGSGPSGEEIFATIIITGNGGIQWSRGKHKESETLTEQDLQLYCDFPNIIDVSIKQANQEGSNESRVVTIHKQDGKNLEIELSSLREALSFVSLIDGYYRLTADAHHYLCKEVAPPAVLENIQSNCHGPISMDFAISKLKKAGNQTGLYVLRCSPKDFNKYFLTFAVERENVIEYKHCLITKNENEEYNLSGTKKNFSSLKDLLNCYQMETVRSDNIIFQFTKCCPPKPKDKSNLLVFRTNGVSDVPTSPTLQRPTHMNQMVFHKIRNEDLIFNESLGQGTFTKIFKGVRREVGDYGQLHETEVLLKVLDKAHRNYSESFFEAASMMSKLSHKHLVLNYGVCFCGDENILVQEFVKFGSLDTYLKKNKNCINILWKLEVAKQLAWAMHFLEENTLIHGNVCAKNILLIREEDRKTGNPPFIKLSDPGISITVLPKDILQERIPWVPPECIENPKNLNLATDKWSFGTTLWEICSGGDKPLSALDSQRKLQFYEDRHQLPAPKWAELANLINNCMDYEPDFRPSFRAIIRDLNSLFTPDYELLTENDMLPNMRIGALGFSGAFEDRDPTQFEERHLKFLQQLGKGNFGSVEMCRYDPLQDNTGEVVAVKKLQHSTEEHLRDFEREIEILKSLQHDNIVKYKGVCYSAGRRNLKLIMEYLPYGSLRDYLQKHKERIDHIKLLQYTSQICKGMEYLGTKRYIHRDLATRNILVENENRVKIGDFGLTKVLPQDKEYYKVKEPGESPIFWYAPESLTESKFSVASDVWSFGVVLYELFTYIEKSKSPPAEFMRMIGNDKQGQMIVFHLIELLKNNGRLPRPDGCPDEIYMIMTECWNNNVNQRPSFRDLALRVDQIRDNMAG
Sequence of TEK (Q02763 23-1124): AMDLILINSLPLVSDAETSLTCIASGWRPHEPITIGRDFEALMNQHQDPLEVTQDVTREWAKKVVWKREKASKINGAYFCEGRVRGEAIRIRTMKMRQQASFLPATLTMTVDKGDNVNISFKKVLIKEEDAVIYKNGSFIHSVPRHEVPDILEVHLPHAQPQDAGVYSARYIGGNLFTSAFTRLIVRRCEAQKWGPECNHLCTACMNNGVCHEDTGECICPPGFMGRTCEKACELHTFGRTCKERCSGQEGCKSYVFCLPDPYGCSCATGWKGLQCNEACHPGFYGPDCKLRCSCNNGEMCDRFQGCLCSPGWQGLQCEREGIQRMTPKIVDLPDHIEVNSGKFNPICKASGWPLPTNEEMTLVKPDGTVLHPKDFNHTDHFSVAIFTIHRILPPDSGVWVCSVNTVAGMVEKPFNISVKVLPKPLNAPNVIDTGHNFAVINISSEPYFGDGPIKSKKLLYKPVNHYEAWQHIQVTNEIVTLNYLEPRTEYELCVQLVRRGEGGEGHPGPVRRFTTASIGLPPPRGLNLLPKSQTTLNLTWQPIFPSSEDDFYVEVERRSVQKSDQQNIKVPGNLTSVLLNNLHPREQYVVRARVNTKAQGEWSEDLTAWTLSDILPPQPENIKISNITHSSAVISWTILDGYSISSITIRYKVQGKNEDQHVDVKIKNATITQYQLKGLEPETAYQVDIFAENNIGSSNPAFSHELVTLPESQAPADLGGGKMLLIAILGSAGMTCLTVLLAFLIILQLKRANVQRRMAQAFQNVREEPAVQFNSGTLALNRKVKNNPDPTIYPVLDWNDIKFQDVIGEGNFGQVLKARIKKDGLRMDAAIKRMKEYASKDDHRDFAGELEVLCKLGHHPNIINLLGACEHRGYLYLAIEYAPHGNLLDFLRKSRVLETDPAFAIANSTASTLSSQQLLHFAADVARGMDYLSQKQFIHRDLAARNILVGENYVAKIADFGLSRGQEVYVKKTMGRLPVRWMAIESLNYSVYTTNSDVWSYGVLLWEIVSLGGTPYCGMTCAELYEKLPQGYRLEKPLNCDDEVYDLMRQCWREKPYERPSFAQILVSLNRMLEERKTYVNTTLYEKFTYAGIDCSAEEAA
Sequence of WEE1 (P30291 whole entry): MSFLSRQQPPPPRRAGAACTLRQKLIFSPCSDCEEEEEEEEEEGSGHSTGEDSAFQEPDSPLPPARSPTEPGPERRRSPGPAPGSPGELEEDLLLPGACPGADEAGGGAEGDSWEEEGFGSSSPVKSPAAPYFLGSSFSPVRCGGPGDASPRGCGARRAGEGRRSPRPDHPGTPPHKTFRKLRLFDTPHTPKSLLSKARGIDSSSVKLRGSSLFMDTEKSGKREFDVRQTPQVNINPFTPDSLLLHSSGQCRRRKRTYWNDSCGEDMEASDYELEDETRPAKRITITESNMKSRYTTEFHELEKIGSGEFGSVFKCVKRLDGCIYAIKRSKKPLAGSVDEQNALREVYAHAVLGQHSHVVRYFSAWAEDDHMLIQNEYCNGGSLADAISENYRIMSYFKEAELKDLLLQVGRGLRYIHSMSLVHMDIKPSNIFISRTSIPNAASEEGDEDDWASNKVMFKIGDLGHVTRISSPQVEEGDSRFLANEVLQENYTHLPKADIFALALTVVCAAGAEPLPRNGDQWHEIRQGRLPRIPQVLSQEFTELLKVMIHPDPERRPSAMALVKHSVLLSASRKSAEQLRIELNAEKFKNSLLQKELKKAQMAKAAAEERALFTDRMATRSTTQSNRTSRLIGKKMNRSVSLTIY

CN(Cc1ccn2ncc(C(N)=O)c2c1)C(=O)Nc1ccc(OC(F)(F)F)cc1 [CDD-3031, 5-((1-methyl-3-(4-(trifluoromethoxy)phenyl)ureido)methyl)pyrazolo[1,5-a]pyridine-3-carboxamide]
IC50 (NTRK1): 0.153 µM
potential liver and other tissue toxicity ([1]; high dose, 50 mg/kg): minimal effects
ALT [1, 6]: 35.89 IU/L and 24.49 IU/L and 52.86 IU/L and 48.18 IU/L
AST [1, 6]: 86.81 IU/L and 64.53 IU/L and 68.33 IU/L and 72.84 IU/L
receptor occupancy at 1 µM (PKMYT1; average, read-out: PKMYT1 kinase occupancy, Average (%)): 4.17%
receptor occupancy at 1 µM (PKMYT1; replicate 1, read-out: PKMYT1 kinase occupancy, Replicate 1 (%)): 5.47%
receptor occupancy at 1 µM (PKMYT1; replicate 2, read-out: PKMYT1 kinase occupancy, Replicate 2 (%)): 2.88%
receptor occupancy at 1 µM (TEK; average, read-out: TEK kinase occupancy, Average (%)): 10.2%
receptor occupancy at 1 µM (TEK; replicate 1, read-out: TEK kinase occupancy, Replicate 1 (%)): 13.1%
receptor occupancy at 1 µM (TEK; replicate 2, read-out: TEK kinase occupancy, Replicate 2 (%)): 7.34%
receptor occupancy at 1 µM (JAK2 (V617F); average, read-out: JAK2 (V617F) kinase occupancy, Average (%)): 9.92%
receptor occupancy at 1 µM (JAK2 (V617F); replicate 1, read-out: JAK2 (V617F) kinase occupancy, Replicate 1 (%)): 31.4%
receptor occupancy at 1 µM (JAK2 (V617F); replicate 2, read-out: JAK2 (V617F) kinase occupancy, Replicate 2 (%)): -11.6%
receptor occupancy at 1 µM (STK11; average, read-out: STK11 kinase occupancy, Average (%)): 5.85%
receptor occupancy at 1 µM (STK11; replicate 1, read-out: STK11 kinase occupancy, Replicate 1 (%)): 6.96%
receptor occupancy at 1 µM (STK11; replicate 2, read-out: STK11 kinase occupancy, Replicate 2 (%)): 4.74%
receptor occupancy at 1 µM (MKNK2; average, read-out: MKNK2 kinase occupancy, Average (%)): 4.61%
receptor occupancy at 1 µM (MKNK2; replicate 1, read-out: MKNK2 kinase occupancy, Replicate 1 (%)): 7.96%
receptor occupancy at 1 µM (MKNK2; replicate 2, read-out: MKNK2 kinase occupancy, Replicate 2 (%)): 1.26%
receptor occupancy at 1 µM (MAP3K19; average, read-out: MAP3K19 kinase occupancy, Average (%)): 13.3%
receptor occupancy at 1 µM (MAP3K19; replicate 1, read-out: MAP3K19 kinase occupancy, Replicate 1 (%)): 53.3%
receptor occupancy at 1 µM (MAP3K19; replicate 2, read-out: MAP3K19 kinase occupancy, Replicate 2 (%)): -26.6%
receptor occupancy at 1 µM (CDKL1; average, read-out: CDKL1 kinase occupancy, Average (%)): 8.23%
receptor occupancy at 1 µM (CDKL1; replicate 1, read-out: CDKL1 kinase occupancy, Replicate 1 (%)): 2.8%
receptor occupancy at 1 µM (CDKL1; replicate 2, read-out: CDKL1 kinase occupancy, Replicate 2 (%)): 13.7%
receptor occupancy at 1 µM (WEE1; average, read-out: WEE1 kinase occupancy, Average (%)): 4.94%
receptor occupancy at 1 µM (WEE1; replicate 1, read-out: WEE1 kinase occupancy, Replicate 1 (%)): 9.23%
receptor occupancy at 1 µM (WEE1; replicate 2, read-out: WEE1 kinase occupancy, Replicate 2 (%)): 0.65%
receptor occupancy at 1 µM (MUSK; average, read-out: MUSK kinase occupancy, Average (%)): 19.8%
receptor occupancy at 1 µM (MUSK; replicate 1, read-out: MUSK kinase occupancy, Replicate 1 (%)): 17.5%
receptor occupancy at 1 µM (MUSK; replicate 2, read-out: MUSK kinase occupancy, Replicate 2 (%)): 22.2%
receptor occupancy at 1 µM (ULK2; average, read-out: ULK2 kinase occupancy, Average (%)): 4.48%
receptor occupancy at 1 µM (ULK2; replicate 1, read-out: ULK2 kinase occupancy, Replicate 1 (%)): -5.12%
receptor occupancy at 1 µM (ULK2; replicate 2, read-out: ULK2 kinase occupancy, Replicate 2 (%)): 14.1%
receptor occupancy at 1 µM (NTRK2; average, read-out: NTRK2 kinase occupancy, Average (%)): 92.9%
receptor occupancy at 1 µM (NTRK2; replicate 1, read-out: NTRK2 kinase occupancy, Replicate 1 (%)): 94.6%
receptor occupancy at 1 µM (NTRK2; replicate 2, read-out: NTRK2 kinase occupancy, Replicate 2 (%)): 91.2%
receptor occupancy at 1 µM (SGK1; average, read-out: SGK1 kinase occupancy, Average (%)): 4.31%
receptor occupancy at 1 µM (SGK1; replicate 1, read-out: SGK1 kinase occupancy, Replicate 1 (%)): 1.93%
receptor occupancy at 1 µM (SGK1; replicate 2, read-out: SGK1 kinase occupancy, Replicate 2 (%)): 6.69%
receptor occupancy at 1 µM (TIE1; average, read-out: TIE1 kinase occupancy, Average (%)): 14%
receptor occupancy at 1 µM (TIE1; replicate 1, read-out: TIE1 kinase occupancy, Replicate 1 (%)): 8.54%
receptor occupancy at 1 µM (TIE1; replicate 2, read-out: TIE1 kinase occupancy, Replicate 2 (%)): 19.5%
brain uptake relative to controls ([2]; brain and plasma 24 hours post-administration): low brain penetration; also recorded: relatively low brain uptake compared to chlorpromazine (positive control), but a high uptake as compared to hydroxyzine (negative control)
concentration at 24 h ([2]; mouse, brain, 24 h, read-out: Brain Concentration at 24 h (ng/mg)): 350 ng/g
IC50 (NTRK3): 0.0253 µM
AUC(0-inf) ([3]; mouse, blood): 478 ± 87.8 µM·h
AUC(0-t) ([3]; mouse, blood): 418 ± 62.1 µM·h
Cmax ([3]; mouse, blood): 37.1 ± 4.88 µM
Tmax ([3]; mouse, blood): 1.17 ± 0.76 h
half-life ([3]; mouse, blood): 8.03 ± 1.25 h
MRT last ([3]; mouse, blood, read-out: MRT0-t): 7.23 ± 0.38 h
MRT inf ([3]; mouse, blood, read-out: MRT0-∞): 10.7 ± 1.52 h
CL/F [3]: 0.11 ± 0.02 mg/(hr*μmol/L)/kg
Vd/F [3]: 1.22 ± 0.05 mg/(μmol/L)/kg
selectivity in 192-kinase occupancy panel (192 kinases): greater selectivity for NTRK2 and NTRK1
effect on liver and/or kidney weight and/or serum elevation of ALT and AST ([4]; 10 mg/kg, mice with endometriotic lesions): little to no effect
ALT (Mean ± SD) [4, 7]: 16.6 ± 2.6
AST (Mean ± SD) [4, 7]: 46.9 ± 23.4
impact on liver and kidney weights ([4]; mice treated for 14 days): no significant impact
half-life [5]: 13.1 h
microsomal CLint [5]: 1.8 µL/min/mg
